Assay results published in patent publication US11446280B2, “Compounds and methods for the treatment of microbial infections” (Versitech Limited, priority 2017, dated 2022).
In brackets after ≈: the same amount, converted by molar mass.

Assays:
[1] = test system: S. aureus pigment formation (staphyloxanthin production); assay: In vitro pigment inhibition / staphyloxanthin production in S. aureus; type: cell-based, Staphylococcus aureus; conditions: S. aureus USA300, staphyloxanthin methanol extract OD 450 nm, compounds 300 nM to 700 nM, NP16 = 1
Experimental: S. aureus was propagated in Brain Heart Infusion broth (BHI) or on BHI agar (Oxoid). The in vitro pigment inhibition studies were performed by S. aureus USA300 cultured in BHI with or without the presence of inhibitor compounds at 37° C. and 250 rpm for 36-48 hours. The bacteria were washed twice with PBS prior to the staphyloxanthin purification with methanol. The OD of the extracts were monitor at 450 nm using DTX880 multi-plate reader spectrophotometer (Beckman). The concentration range tested for the compounds were between 300 nM to 700 nM, and control groups were added with equal volume of DMSO.
(§1) The IC50 values were obtained by fitting the inhibition data to a normal dose-response curve in SigmaPlot (CA).
(§2) The cytotoxicity of NP-16 and some of it analogues was tested against Raw 264.7 cells, and the cell tolerance of each compounds were documented in Table 3. Along with the in vitro staphyloxanthin production of the NP-16 analogues were being tested, the compounds can exert staphyloxanthin production inhibition. The staphyloxanthin from the overnight-cultured bacteria were extracted with methanol and quantified in via spectrophotometry. The results were presented in relative ratio to NP-16 in both the inhibition ratio as well as the TC50 in Table 3 (compound/analogue numbers correspond to those listed in Table 1).

Raw 264.7 cells = assay: Cytotoxicity in Raw 264.7 cells (MTT assay); type: cell-based; design: unit not given here; conditions: highest concentration 500 μM
Experimental: (§3) The cytotoxicity of NP-16 and some of it analogues in Raw 264.7 cells was also evaluated by MTT (3-[4,5-dimethylthiazol-2-yl]-2,5-diphenyltetrazolium bromide) assay according to manufacturer's instructions. A toxic control (1%) SDS was included to ensure the MTT assay was working properly. The highest concentration of NP-16 analogues used was 500 μM due to solubility limitations. SigmaPlot 11.0 (SPSS, IL) was used for graph plotting. Experiments were carried out in triplicate and repeated twice.
as §2

[2] = target: 4,4-diapophytoene desaturase (CrtN) (Staphylococcus aureus, UniProt Q7A3E2); conditions: reference [5]; cited from earlier work
MDCK cells = assay: Cytotoxicity in MDCK cells (MTT assay); type: cell-based; conditions: up to 500 μM
Experimental: (§4) The cytotoxicity of NP16 in MDCK cells was evaluated by MTT (3-[4,5-dimethylthiazol-2-yl]-2,5-diphenyltetrazolium bromide) assay according to manufacturer's instructions. A toxic control (1%) SDS was included to ensure the MTT assay was effective. The highest concentration of NP16 that could be used was 500 μM due to solubility limitations. SigmaPlot 11.0 (SPSS, IL) was used for graph plotting. Experiments were repeated twice in triplicate.
as §1

[3] = Solubility limit in cytotoxicity testing; type: physicochemical; conditions: cytotoxicity (MTT) assay medium; read-out: Highest concentration that could be used due to solubility limitations
Experimental: as §4, §3

[4] = test system: polymorphonuclear leukocytes; conditions: at high concentrations, reference [14]; cited from earlier work

Chain of 4,4-diapophytoene desaturase (CrtN) (Q7A3E2 whole entry): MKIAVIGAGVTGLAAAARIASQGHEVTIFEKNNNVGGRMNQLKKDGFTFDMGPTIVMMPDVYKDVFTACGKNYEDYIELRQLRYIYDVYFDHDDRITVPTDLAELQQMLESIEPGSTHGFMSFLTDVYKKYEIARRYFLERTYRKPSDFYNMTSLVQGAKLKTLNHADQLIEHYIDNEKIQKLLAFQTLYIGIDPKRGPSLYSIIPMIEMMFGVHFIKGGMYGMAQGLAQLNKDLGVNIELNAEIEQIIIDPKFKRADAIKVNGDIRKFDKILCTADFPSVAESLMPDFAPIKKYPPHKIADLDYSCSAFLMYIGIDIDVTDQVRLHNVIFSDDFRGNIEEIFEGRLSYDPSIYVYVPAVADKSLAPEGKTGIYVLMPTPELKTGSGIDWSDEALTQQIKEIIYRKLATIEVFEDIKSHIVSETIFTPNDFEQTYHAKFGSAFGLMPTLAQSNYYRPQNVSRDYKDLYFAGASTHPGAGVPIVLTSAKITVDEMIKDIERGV

SMILES | Relative ratio to NP16 based on inhibition ratio [1] | TC50 to Raw 264.7 cells (Raw 264.7 cells) | other results
O=C(/C=C/c1ccc(Br)cc1)Nc1ccc(S(=O)(=O)N2CCCC2)cc1 [Compound 13, 3-(4-bromophenyl)-N-[4-(1-pyrrolidinylsulfonyl)phenyl]acryl-amide] | 0.25 | >200 | –
O=C(/C=C/c1cccc(-c2ccccc2)c1)Nc1ccc(S(=O)(=O)N2CCCC2)cc1 [Compound 20, 3-(5-phenylphenyl)-N-[4-(1-pyrrolidinylsulfonyl)phenyl]acryl-amide] | 0.61 | >200 | –
c1ccc(Nc2ccccc2)cc1 [Diphenylamine] | – | – | Inhibition of CrtN [2]: high micromolar level
O=C(/C=C/c1cccc(Br)c1)Nc1ccc(S(=O)(=O)N2CCCC2)cc1 [Compound 11, 3-(5-bromophenyl)-N-[4-(1-pyrrolidinylsulfonyl)phenyl]acryl-amide] | 1.03 | >200 | –
Cc1ccc(/C=C/C(=O)Nc2ccc(S(=O)(=O)N3CCCC3)cc2)cc1 [Compound 14, 3-(4-methylphenyl)-N-[4-(1-pyrrolidinylsulfonyl)phenyl]acryl-amide] | 0.83 | >200 | –
CC(=O)Oc1ccc(/C=C/C(=O)Nc2ccc(S(=O)(=O)N3CCCC3)cc2)cc1 [Compound 19, 3-(4-acetoxylphenyl)-N-[4-(1-pyrrolidinylsulfonyl)phenyl]acryl-amide] | 0.86 | ~150 | –
O=C(/C=C/c1ccccc1)Nc1ccc(S(=O)(=O)N2CCCC2)cc1 [Compound 1, 3-phenyl-N-[4-(1-pyrrolidinylsulfonyl)phenyl]acryl-amide] | – | >200 | Effect on the growth of MDCK cells (MDCK cells): no effect; solubility [3]: 500 µM (≈ 178 µg/mL)
Cc1ccccc1/C=C/C(=O)Nc1ccc(S(=O)(=O)N2CCCC2)cc1 [Compound 15, 3-(6-methylphenyl)-N-[4-(1-pyrrolidinylsulfonyl)phenyl]acryl-amide] | 1.73 | >200 | –
CC(=O)Oc1ccccc1/C=C/C(=O)Nc1ccc(S(=O)(=O)N2CCCC2)cc1 [Compound 18, 3-(6-acetoxylphenyl)-N-[4-(1-pyrrolidinylsulfonyl)phenyl]acryl-amide] | 0.35 | ~150 | –
O=C(/C=C/c1ccc(O)cc1)Nc1ccc(S(=O)(=O)N2CCCC2)cc1 [Compound 16, 3-(4-hydroxylphenyl)-N-[4-(1-pyrrolidinylsulfonyl)phenyl]acryl-amide] | 0.33 | 75 | –
O=C(/C=C/c1ccccc1Br)Nc1ccc(S(=O)(=O)N2CCCC2)cc1 [Compound 12, 3-(6-bromophenyl)-N-[4-(1-pyrrolidinylsulfonyl)phenyl]acryl-amide] | 2.35 | >200 | –
CN(C/C=C/c1ccccc1)Cc1cccc2ccccc12 [naftifine] | – | – | Chemotaxis, chemokinesis, chemiluminescence and superoxide anion production of polymorphonuclear leukocytes [4]: suppress
CC(=O)Oc1cccc(/C=C/C(=O)Nc2ccc(S(=O)(=O)N3CCCC3)cc2)c1 [Compound 17, 3-(5-acetoxylphenyl)-N-[4-(1-pyrrolidinylsulfonyl)phenyl]acryl-amide] | 0.58 | ~75 | –
